Measurements reported in US7034048B2, “Gastrin and cholecystokinin receptor ligands (III)” (James Black Foundation Limited, priority 2000, dated 2006).

biological target: T1, gastrin (CCK2) receptors (Rattus norvegicus, UniProt P30553); assay: immature rat stomach assay, gastrin (CCK2) antagonist activity against pentagastrin-stimulated acid secretion; conditions: isolated immature rat stomach, 60 min incubation, then cumulative pentagastrin dose-response curves, read-out: Rat Stomach pKB (converted)
T1 construct: The stomach was excised and flushed with ca. 1 ml of unbuffered physiological saline solution; from tissue; host or cells: isolated, lumen-perfused stomach of immature rats (33-50 g, ca. 21 days old)
T1 sequence (P30553 1-452): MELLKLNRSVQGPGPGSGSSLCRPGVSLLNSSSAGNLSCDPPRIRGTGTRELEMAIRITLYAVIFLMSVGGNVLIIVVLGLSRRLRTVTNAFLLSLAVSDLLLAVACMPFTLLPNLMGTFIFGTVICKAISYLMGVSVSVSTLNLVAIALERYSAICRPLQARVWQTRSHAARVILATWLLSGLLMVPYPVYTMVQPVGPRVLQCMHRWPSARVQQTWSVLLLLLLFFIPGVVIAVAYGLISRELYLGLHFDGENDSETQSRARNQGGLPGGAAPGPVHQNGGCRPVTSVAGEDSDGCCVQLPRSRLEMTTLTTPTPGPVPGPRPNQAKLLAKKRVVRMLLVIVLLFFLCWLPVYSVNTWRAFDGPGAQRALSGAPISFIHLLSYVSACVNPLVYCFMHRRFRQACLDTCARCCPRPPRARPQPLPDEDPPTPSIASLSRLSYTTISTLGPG
Experimental: The compounds of the examples were tested for gastrin (CCK2) antagonist activity in an immature rat stomach assay. The procedure was as follows: The oesophagus of immature rats (33–50 g, ca. 21 days old) was ligated at the level of the cardiac sphincter and the duodenal sphincter was cannulated. The stomach was excised and flushed with ca. 1 ml of unbuffered physiological saline solution. The fundus was punctured and cannulated. A further 4–5 ml of unbuffered solution was flushed through the stomach to ensure the preparation was not leaking. The stomach was lowered into a jacketed organ bath containing 40 ml of buffered solution containing 3×10^−8 M 5-methylfurmethide, maintained at 37° and gassed vigorously with 95% O2/5% CO2. The stomach was continuously perfused at a rate of 1 ml min^−1 with unbuffered solution gassed with 100% O2 with the perfusate passing over an internally referenced pH-electrode fixed 12 cm above the stomach. After 120 min of stabilisation the drugs were added directly to the serosal solution in the organ bath and after a further 60 min cumulative pentagastrin dose-response curves were started. Changes in acid secretion were monitored and the curves analysed according to Black et al., Br. J. Pharmacol. 1985, 86, 581.

Row | Kb | Structure (SMILES)
1 | 3390 nM | O=C(O)c1ccc2[nH]c(-c3nc(C4CCCCC4)[nH]c3COC34CC5CC(CC(C5)C3)C4)nc2c1 [Example 3, 2-[5-(Adamantan-1-yloxymethyl)-2-cyclohexyl-1H-imidazole-4-yl]-1H-benzoimidazole-5-carboxylic acid]
2 | 372 nM | O=C(O)c1cccc2[nH]c(-c3nc(C4CCCCC4)[nH]c3COC34CC5CC(CC(C5)C3)C4)nc12 [Example 4, 2-[5-(Adamantan-1-yloxymethyl)-2-cyclohexyl-1H-imidazole-4-yl]-1H-benzoimidazole-4-carboxylic acid]
3 | 2040 nM | O=C(O)Cc1ccc2oc(-c3nc(C4CCCCC4)[nH]c3COC34CC5CC(CC(C5)C3)C4)nc2c1 [Example 5, {2-[5-(Adamantan-1-yloxymethyl)-2-cyclohexyl-1H-imidazole-4-yl]-benzooxazol-5-yl}-acetic acid]

The next lines start with the compound.

Row | Structure (SMILES) | Kb
4 | O=C(O)c1ccc2oc(-c3nc(C4CCCCC4)[nH]c3COC34CC5CC(CC(C5)C3)C4)nc2c1 [Example 1, 2-[5-(Adamantan-1-yloxymethyl)-2-cyclohexyl-1H-imidazole-4-yl]-benzooxazole-5-carboxylic acid] | 3310 nM
5 | O=C(O)c1ccc2nc(-c3nc(C4CCCCC4)[nH]c3COC34CC5CC(CC(C5)C3)C4)oc2c1 [Example 2, 2-[5-(Adamantan-1-yloxymethyl)-2-cyclohexyl-1H-imidazole-4-yl]-benzooxazole-6-carboxylic acid] | 1620 nM
